Experiment: gradient 5% acetonitrile 3 min, to 50% in 2 min, to 85% in 15 min, held 3 min, 100 µL/min
Settings: column: Zorbax Extend-C18 2.1 x 50 mm; eluents: water / acetonitrile, 0.1% formic acid
Outline: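 Pure standards were run in mixtures of ~100 molecules by HPLC coupled to a quadrupole time-of-flight mass spectrometer. The column was a Zorbax Extend-C18 (2.1 × 50 mm, 1.8 μm) at 100 μL/min, with water and acetonitrile each containing 0.1% formic acid, in positive and negative ionization mode. Dead and dwell volumes were 40 μL and 900 μL. Retention time was taken from computationally picked adduct peaks, each manually inspected, with data collected over 3 months.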

Row | SMILES | RP-LC retention time
1 | COC(=O)c1ccc2c(=O)n(-c3cc(C)cc(C)c3)c(N3CCOCC3)nc2c1 | 1040 s
2 | Cc1ccnc(Nc2nc(-c3ccccc3C)cs2)c1 | 821 s
3 | CC(=O)N1c2ccc(S(=O)(=O)N3CCCCCC3)cc2CC1C(=O)NCCc1ccc(C)cc1 (stereo unspecified) | 957 s
4 | CCn1cc(C)c(C(=O)O)c1CC(=O)N(C)c1ccccc1F | 770 s
5 | CCCCS(=O)(=O)c1cc2c(cc1NC(=O)c1ccccc1C)n(C)c(=O)n2C | 853 s
6 | C#CCOCC1CCN(C(=O)CSC2CCCC2)CC1 | 852 s
7 | COc1cccc(NC(=O)Cn2nc3cc(C)nc(Nc4ccc(C)c(F)c4)n3c2=O)c1 | 1100 s
8 | COc1ccc(NC(=O)c2sc(-c3cn(C(C)C)c4ncccc34)nc2C)cc1 | 902 s
9 | CCCN1CCN(C(=O)C2CCN(c3nc4cccnc4s3)CC2)CC1 | 574 s
10 | CC(=O)Nc1cc(C(=O)N2CCN(c3cc(C)ccc3C)CC2)c2ccc(C)nc2c1 | 1250 s
11 | COc1ccc(CNC(=O)Cn2ncc3c(c2=O)N(C2CC2)C(=O)CS3)cc1 | 667 s
12 | COC(=O)C1=CN(C2CC2)c2cc(N3CCN(c4ccc(OC)cc4)CC3)c(F)cc2S1(=O)=O | 856 s
13 | COc1ccc(C2=NC3(CCN(C(=O)Nc4ccc(Cl)cc4)CC3)NC2=O)cc1 | 835 s
14 | CC(C)N(CCCNC(=O)Cn1cc2c(n1)CCCCC2)Cc1ccccc1 | 674 s
15 | CCOC(=O)c1cnc(NC(=O)c2ccc(S(=O)(=O)N3CCCCC3)cc2)s1 | 882 s
16 | CCc1ccc(NC(=O)C2CCN(S(=O)(=O)c3ccc4c(c3)S(=O)(=O)N=CN4)CC2)cc1 | 806 s
17 | COc1cccc(NC(=O)Cn2ccnc2-c2ccnc(N3CCCC3)c2)c1 | 602 s
18 | Cc1nn(-c2ccc(F)cc2)c(C)c1S(=O)(=O)N1CCC(C(=O)NCc2cccs2)CC1 | 861 s
19 | O=C(CSc1nnc2c3sc(N4CCCC4)nc3ncn12)Nc1cccc(Cl)c1 | 874 s
20 | Cc1noc(-c2nc(-c3ccccc3F)no2)n1 | 990 s
21 | O=C(c1ccoc1)N1CCCC1c1nc(-c2ccc(F)cc2F)no1 (stereo unspecified) | 869 s
22 | COc1ccc(S(=O)(=O)N2CCC(OCCOCc3ccccc3)CC2)cc1 | 1050 s

Row | SMILES | RP-LC retention time
23 | O=C(Nc1nc2c(s1)CCCC2C(=O)NCc1ccco1)c1ccc2c(c1)OCO2 (stereo unspecified) | 789 s
24 | CCc1nc2cc(-c3noc(-c4sccc4C)n3)ccc2o1 | 1210 s
25 | Cc1ccc(C2Cn3cnc(C(=O)N4CCC(C(=O)NCC5CCCCC5)CC4)c3CO2)cc1 (stereo unspecified) | 885 s
26 | CN(c1nccn2c(=O)n(CC(=O)Nc3ccc(F)c(Cl)c3)nc12)C1CCCCC1 | 819 s
27 | CC(=O)Nc1ccc(S(=O)(=O)N2CCN(S(=O)(=O)N(C)C)CC2)cc1 | 653 s
28 | COCCn1c(C2CCN(S(=O)(=O)c3ccc(F)cc3)C2)nc2cccnc21 (stereo unspecified) | 763 s
29 | Cc1ccc(-n2nc(C)c(S(=O)(=O)N3CCC(C(=O)N4CCN(C)CC4)CC3)c2C)cc1 | 629 s
30 | COCc1cn(C2CN(C(=O)c3sc(C)nc3C)C2)nn1 | 589 s
31 | Cc1ccc(NC(=O)C2CCN(C(=O)C3Sc4ccccc4NC3=O)CC2)cc1 (stereo unspecified) | 749 s
32 | CCOC(=O)C1CCN(C(=O)c2nnc(-c3ccc(S(=O)(=O)N4CCOCC4)cc3)o2)CC1 | 826 s
33 | COCCn1c(C2CCN(S(=O)(=O)c3ccc(C)c(Cl)c3)C2)nc2ccncc21 (stereo unspecified) | 591 s
34 | Cc1ccsc1C(=O)Nc1cnn(-c2ncncc2N2CCC(C)CC2)c1 | 918 s
35 | CS(=O)(=O)N1CCN(C(=O)C2CCCN(c3ccc(-c4ccc(F)cc4)nn3)C2)CC1 (stereo unspecified) | 611 s
36 | Cc1ccc(-c2nc(C)cc(SCC(=O)Nc3cc(C)ccc3C)n2)cc1 | 1210 s
37 | Cc1cc2nc3sc(C(=O)NCCCN4CCN(C)CC4)cc(=O)n3c2cc1C | 730 s
38 | Cc1cccc(-c2nnc(-c3ccc(Cl)c(S(=O)(=O)N(C)C)c3)o2)c1 | 1040 s
39 | Cc1ccc(CN2CCN(CC(C)C(=O)NCc3ccc(F)cc3F)C(=O)C2=O)cc1 (stereo unspecified) | 755 s
40 | CCn1cc(-c2ccc(C)cc2)cc1C(=O)NCCOC | 919 s
41 | CCOc1ccc(NC(=O)NC2CCN(c3cc(C)cc(C)c3)C2=O)cc1 (stereo unspecified) | 886 s
42 | Cc1ccc(C)c(NC(=O)CSc2nccc(N3CCN(c4cc(C)ccc4C)CC3)n2)c1 | 989 s
43 | c1ccc(-n2cnnc2C2CCCCN2Cc2ccncc2)cc1 (stereo unspecified) | 584 s

Next, values leading:

Row | RP-LC retention time | SMILES
44 | 632 s | O=C(c1ccc(Br)cc1)N1CCN=C1N1CCN(c2ccccc2F)CC1
45 | 865 s | COc1ccccc1N1C(=O)CC(Sc2ccccc2N)C1=O (stereo unspecified)
46 | 970 s | O=C(Nc1cnc(-c2ccccc2)nc1)c1cccc(F)c1
47 | 878 s | COc1cccc(NC(=O)N2CCC3(CC2)N=C(c2cccc(Cl)c2)C(=O)N3)c1
48 | 766 s | COCCN1C(=O)CCc2cc(NC(=O)Cc3ccccc3C)ccc21
49 | 825 s | O=C(Cc1c[nH]c2ccccc12)N1CCc2cc(-c3ccno3)ccc21
50 | 752 s | O=C(Cn1c(=O)c2cc(C3CC3)nn2c2ncccc21)Nc1ccccc1
51 | 731 s | COCCNC(=O)c1nc2ccccn2c1-c1ccc(Cl)cc1
52 | 819 s | COc1ccccc1NC(=O)Cn1nc(N2CCOCC2)c2ccccc2c1=O
53 | 742 s | CC(C)n1cnc2ccc(-c3noc(-c4ccc(F)cc4)n3)cc21
54 | 1010 s | O=C(Cn1cccc1-c1nc(-c2ccc(F)cc2)no1)Nc1ccc2c(c1)OCO2
55 | 726 s | CC(CNC(=O)c1nc(N2CCOCC2)c2ccccc2n1)c1ccccc1 (stereo unspecified)
56 | 743 s | COc1cccc(-c2c(C(=O)O)nnn2-c2ccc3c(c2)OCO3)c1
57 | 891 s | COc1ccc(-c2ccc(=O)n(Cc3nc(-c4ccccc4OC)no3)n2)cc1
58 | 902 s | CCn1cc(-c2nc(CC(=O)Nc3ccc(F)cc3C)cs2)c2cccnc21
59 | 706 s | CCc1ccccc1S(=O)(=O)NCC(c1cccnc1)c1c[nH]c2ccccc12 (stereo unspecified)
60 | 640 s | COc1cccc(CC(=O)NC(C)C(=O)Nc2nc3ccccc3[nH]2)c1 (stereo unspecified)
61 | 786 s | Cc1ccccc1CNC(=O)C1CCCN1S(=O)(=O)c1cc2c(cc1Cl)NC(=O)CO2 (stereo unspecified)
62 | 772 s | CN(CC1(C)CCOCC1)C(=O)CCc1c[nH]c2ccccc12
63 | 870 s | O=C(Nc1ccc(-c2nc3ccccc3o2)cc1)Nc1c(F)cccc1F
64 | 741 s | CCN1CCn2c(nc3cc(C(=O)NCc4ccccc4C(F)(F)F)ccc32)C1=O
65 | 1030 s | O=C(c1ccc(Br)cc1)N1CCc2cc(-c3ccno3)ccc21
66 | 797 s | COc1ccccc1CNC(=O)Cn1c(=O)c2cc(-c3ccco3)nn2c2ncccc21

Reference: the METLIN SMRT retention time set (Domingo-Almenara et al. 2019)
